The text below walks through data of ChEMBL document CHEMBL1134839, “Methylene-gem-difluorocyclopropane analogues of nucleosides: synthesis, cyclopropene-methylenecyclopropane rearrangement, and biological activity” (2001).

One assay deals with MC-38. The experiment in a line: The compound was tested for antitumor activity against mouse tumor C38 cells. It counts as functional.
Assay [1] is described as follows: The compound was tested for antitumor activity against normal cells (fibroblast). Format: functional, Homo sapiens.
The nature of assay [2]: The compound was tested for antitumor activity against human tumor H15 cells. It counts as functional.
Assay [3] in a line: The compound was tested for antitumor activity against human colon tumor H116 cells. Format: functional.
A short description of assay [4]: The compound was tested for antitumor activity against mouse tumor M17/Adr cells. Format: functional.
Assay [5] can be described thus: The compound was tested for antitumor activity against L1210 cells. It counts as functional, Mus musculus.

For the compound `Nc1ncnc2c1ncn2/C=C1\C(CO)C1(F)F` (configuration not stated), the Activity in the assay with MC-38 came out at 470; in assay [1], 130; in assay [2], 300; in assay [3], 200; in assay [4] it was 370; in assay [5], 420.

For the compound `Nc1ncnc2c1ncn2/C=C1/C(CO)C1(F)F` (configuration not stated), the Activity with MC-38 came to 580; in assay [1], 500; in assay [2] it was 550; in assay [3], 550; in assay [4], 590; in assay [5], 660.

As to `Nc1ncnc2c1ncn2/C=C1/CC1CO` (configuration not stated), the Activity in the assay on MC-38 is 600; in assay [1], 130; in assay [3], 160; in assay [4] it was 460; in assay [5] it was 570.
